Experimental data reported in patent US11236087B2, “Highly active pyrazolo-piperidine substituted indole-2-carboxamides active against the hepatitis B virus (HBV)” (AiCuris GmbH & Co. KG, priority 2017, dated 2022).

Columns and labels:
HBV = experiment: Determination of HBV DNA from the supernatants of HepAD38 cells (anti-HBV activity); assay type: cell-based, hepatitis B virus; settings: Hepatitis B virus, 144 h; HBV DNA in HepAD38 supernatant, day 6, qPCR; read-out: Cell Activity (EC50)
Method: Determination of HBV DNA from the Supernatants of HepAD38 Cells
The anti-HBV activity was analysed in the stable transfected cell line HepAD38, which has been described to secrete high levels of HBV virion particles (Ladner et al., 1997). In brief, HepAD38 cells were cultured at 37° C. at 5% CO2 and 95% humidity in 200 μl maintenance medium, which was Dulbecco's modified Eagle's medium/Nutrient Mixture F-12 (Gibco, Karlsruhe), 10% fetal bovine serum (PAN Biotech Aidenbach) supplemented with 50 μg/ml penicillin/streptomycin (Gibco, Karlsruhe), 2 mM L-glutamine (PAN Biotech, Aidenbach), 400 μg/ml G418 (AppliChem, Darmstadt) and 0.3 μg/ml tetracycline. Cells were subcultured once a week in a 1:5 ratio, but were usually not passaged more than ten times. For the assay 60,000 cells were seeded in maintenance medium without any tetracycline into each well of a 96-well plate and treated with serial half-log dilutions of test compound. To minimize edge effects the outer 36 wells of the plate were not used but were filled with assay medium. On each assay plate six wells for the virus control (untreated HepAD38 cells) and six wells for the cell control (HepAD38 cells treated with 0.3 μg/ml tetracycline) were allocated, respectively. In addition, one plate set with reference inhibitors like BAY 41-4109, entecavir, and lamivudine instead of screening compounds were prepared in each experiment. In general, experiments were performed thrice in triplicates. At day 6 HBV DNA from 100 μl filtrated cell culture supernatant (AcroPrep Advance 96 Filter Plate, […] Supor membran, PALL GmbH, Dreieich) was automatically purified on the MagNa Pure LC instrument using the MagNA Pure 96 DNA and Viral NA Small Volume Kit (Roche Diagnostics, Mannheim) according to the instructions of the manufacturer. EC50 values were calculated from relative copy numbers of HBV DNA In brief, 5 μl of the 100 μl eluate containing HBV DNA were subjected to PCR LC480 Probes Master Kit (Roche) together with 1 μM antisense primer […], 0.5 μM sense primer […], 0.3 μM hybprobes […]-FL and LC640-[…]-PH (TIBMoBiol, Berlin) to a final volume of 12.5 μl. The PCR was performed on the Light Cycler 480 real time system (Roche Diagnostics, Mannheim) using the following protocol: Pre-incubation for 1 min at 95° C., amplification: 40 cycles×(10 sec at 95° C., 50 sec at 60° C., 1 sec at 70° C.), cooling for 10 sec at 40° C. Viral load was quantitated against known standards using HBV plasmid DNA of pCH-9/3091 (Nassal et al., 1990, Cell 63: 1357-1363) and the LightCycler 480 SW 1.5 software (Roche Diagnostics, Mannheim) and EC50 values were calculated using non-linear regression with GraphPad Prism 6 (GraphPad Software Inc., La Jolla, USA).

[1] = Cell viability assay (AlamarBlue) in HepAD38 cells; settings: human

## O=C(c1cc2ccccc2[nH]1)N1CCc2[nH]nc(C(=O)N3CC(F)(F)C(F)(F)C3)c2C1 [Example 223, 2-[3-(3,3,4,4-tetrafluoropyrrolidine-1-carbonyl)-1H,4H,5H,6H,7H-pyrazolo[4,3-c]pyridine-5-carbonyl]-1H-indole]
HBV
  EC50: 1 to 25 µM
[1]
  CC50 at 6 days: > 10 µM

## O=C(c1cc2ccccc2[nH]1)N1CCc2[nH]nc(C(=O)N3CC[C@H](F)C3)c2C1 [Example 224, 2-{3-[(3S)-3-fluoropyrrolidine-1-carbonyl]-1H,4H,5H,6H,7H-pyrazolo[4,3-c]pyridine-5-carbonyl}-1H-indole]
HBV
  EC50: < 1 µM
[1]
  CC50 at 6 days: > 10 µM

## O=C(c1cc2ccccc2[nH]1)N1CCc2[nH]nc(C(=O)N3CC[C@@H](F)C3)c2C1 [Example 225, 2-{3-[(3R)-3-fluoropyrrolidine-1-carbonyl]-1H,4H,5H,6H,7H-pyrazolo[4,3-c]pyridine-5-carbonyl}-1H-indole]
HBV
  EC50: < 1 µM
[1]
  CC50 at 6 days: > 10 µM

## COC(=O)CC1(N(C)C(=O)c2n[nH]c3c2CN(C(=O)c2cc4ccccc4[nH]2)CC3)CC1 [Example 226, methyl 2-{1-[N-methyl 5-(1H-indole-2-carbonyl)-1H,4H,5H,6H,7H-pyrazolo[4,3-c]pyridine-3-amido]cyclopropyl}acetate]
HBV
  EC50: 1 to 25 µM
[1]
  CC50 at 6 days: > 10 µM

## CCc1cc(F)cc2[nH]c(C(=O)N3CCc4[nH]nc(C(=O)N5CCC(F)(F)C5)c4C3)cc12 [Example 227, 2-[3-(3,3-difluoropyrrolidine-1-carbonyl)-1H,4H,5H,6H,7H-pyrazolo[4,3-c]pyridine-5-carbonyl]-4-ethyl-6-fluoro-1H-indole]
HBV
  EC50: < 1 µM
[1]
  CC50 at 6 days: > 10 µM

## CCc1cccc2[nH]c(C(=O)N3CCc4[nH]nc(C(=O)N5CCC(F)(F)C5)c4C3)cc12 [Example 228, 2-[3-(3,3-difluoropyrrolidine-1-carbonyl)-1H,4H,5H,6H,7H-pyrazolo[4,3-c]pyridine-5-carbonyl]-4-ethyl-1H-indole]
HBV
  EC50: < 1 µM
[1]
  CC50 at 6 days: > 10 µM

## O=C(c1cc2c(Cl)cc(F)cc2[nH]1)N1CCc2[nH]nc(C(=O)N3CCC(F)(F)C3)c2C1 [Example 229, 4-chloro-2-[3-(3,3-difluoropyrrolidine-1-carbonyl)-1H,4H,5H,6H,7H-pyrazolo[4,3-c]pyridine-5-carbonyl]-6-fluoro-1H-indole]
HBV
  EC50: < 1 µM
[1]
  CC50 at 6 days: > 10 µM

## O=C(c1cc2c(Cl)cccc2[nH]1)N1CCc2[nH]nc(C(=O)N3CCC(F)(F)C3)c2C1 [Example 230, 4-chloro-2-[3-(3,3-difluoropyrrolidine-1-carbonyl)-1H,4H,5H,6H,7H-pyrazolo[4,3-c]pyridine-5-carbonyl]-1H-indole]
HBV
  EC50: < 1 µM
[1]
  CC50 at 6 days: > 10 µM

## O=C(c1cc2c(F)c(F)ccc2[nH]1)N1CCc2[nH]nc(C(=O)N3CCC(F)(F)C3)c2C1 [Example 231, 2-[3-(3,3-difluoropyrrolidine-1-carbonyl)-1H,4H,5H,6H,7H-pyrazolo[4,3-c]pyridine-5-carbonyl]-4,5-difluoro-1H-indole]
HBV
  EC50: < 1 µM
[1]
  CC50 at 6 days: > 10 µM

## CC(=O)N1CCN(C(=O)c2[nH]nc3c2CN(C(=O)c2cc4ccccc4[nH]2)CC3)C2(CC2)C1 [Example 236, 1-{4-[5-(1H-indole-2-carbonyl)-2H,4H,5H,6H,7H-pyrazolo[4,3-c]pyridine-3-carbonyl]-4,7-diazaspiro[2.5]octan-7-yl}ethan-1-one]
HBV
  EC50: 1 to 25 µM
[1]
  CC50 at 6 days: > 10 µM

## CN(C(=O)c1n[nH]c2c1CN(C(=O)c1cc3ccccc3[nH]1)CC2)C1(CCC(N)=O)CC1 [Example 237, N-[1-(2-carbamoylethyl)cyclopropyl]-5-(1H-indole-2-carbonyl)-N-methyl-1H,4H,5H,6H,7H-pyrazolo[4,3-c]pyridine-3-carboxamide]
HBV
  EC50: < 100 µM
[1]
  CC50 at 6 days: > 10 µM

## CN(C(=O)c1n[nH]c2c1CN(C(=O)c1cc3c(F)cc(F)cc3[nH]1)CC2)C1(CO)CC1 [Example 238, 5-(4,6-difluoro-1H-indole-2-carbonyl)-N-[1-(hydroxymethyl)cyclopropyl]-N-methyl-1H,4H,5H,6H,7H-pyrazolo[4,3-c]pyridine-3-carboxamide]
HBV
  EC50: < 1 µM
[1]
  CC50 at 6 days: > 10 µM

## CN(C(=O)c1n[nH]c2c1CN(C(=O)c1cc3c(Cl)c(F)ccc3[nH]1)CC2)C1(CO)CC1 [Example 239, 5-(4-chloro-5-fluoro-1H-indole-2-carbonyl)-N-[1-(hydroxymethyl)cyclopropyl]-N-methyl-1H,4H,5H,6H,7H-pyrazolo[4,3-c]pyridine-3-carboxamide]
HBV
  EC50: < 1 µM
[1]
  CC50 at 6 days: > 10 µM

## CN(C(=O)c1n[nH]c2c1CN(C(=O)c1cc3c(F)c(F)ccc3[nH]1)CC2)C1(CO)CC1 [Example 240, 5-(4,5-difluoro-1H-indole-2-carbonyl)-N-[1-(hydroxymethyl)cyclopropyl]-N-methyl-1H,4H,5H,6H,7H-pyrazolo[4,3-c]pyridine-3-carboxamide]
HBV
  EC50: < 1 µM
[1]
  CC50 at 6 days: > 10 µM

## CN(C(=O)c1n[nH]c2c1CN(C(=O)c1cc3c(Cl)cc(F)cc3[nH]1)CC2)C1(CO)CC1 [Example 241, 5-(4-chloro-6-fluoro-1H-indole-2-carbonyl)-N-[1-(hydroxymethyl)cyclopropyl]-N-methyl-1H,4H,5H,6H,7H-pyrazolo[4,3-c]pyridine-3-carboxamide]
HBV
  EC50: < 1 µM
[1]
  CC50 at 6 days: > 10 µM

## CN(C(=O)c1n[nH]c2c1CN(C(=O)c1cc3cc(F)c(Cl)cc3[nH]1)CC2)C1(CO)CC1 [Example 242, 5-(6-chloro-5-fluoro-1H-indole-2-carbonyl)-N-[1-(hydroxymethyl)cyclopropyl]-N-methyl-1H,4H,5H,6H,7H-pyrazolo[4,3-c]pyridine-3-carboxamide]
HBV
  EC50: < 1 µM
[1]
  CC50 at 6 days: > 10 µM

## Cc1cc(F)cc2[nH]c(C(=O)N3CCc4[nH]nc(C(=O)N(C)C5(CO)CC5)c4C3)cc12 [Example 243, 5-(6-fluoro-4-methyl-1H-indole-2-carbonyl)-N-[1-(hydroxymethyl)cyclopropyl]-N-methyl-1H,4H,5H,6H,7H-pyrazolo[4,3-c]pyridine-3-carboxamide]
HBV
  EC50: < 1 µM
[1]
  CC50 at 6 days: > 10 µM

## O=C(c1cc2ccccc2[nH]1)N1CCc2n[nH]c(C(=O)N3CCN(Cc4ccccc4)C4(CC4)C3)c2C1 [Example 257, 2-(3-{4-benzyl-4,7-diazaspiro[2.5]octane-7-carbonyl}-2H,4H,5H,6H,7H-pyrazolo[4,3-c]pyridine-5-carbonyl)-1H-indole]
HBV
  EC50: 1 to 25 µM
[1]
  CC50 at 6 days: > 10 µM

## CN(C(=O)c1[nH]nc2c1CN(C(=O)c1cc3ccccc3[nH]1)CC2)C1(C(=O)OC(C)(C)C)CC1 [Example 258, tert-butyl 1-[N-methyl 5-(1H-indole-2-carbonyl)-2H,4H,5H,6H,7H-pyrazolo[4,3-c]pyridine-3-amido]cyclopropane-1-carboxylate]
HBV
  EC50: 1 to 25 µM
[1]
  CC50 at 6 days: > 10 µM

## N[C@@H]1CCN(C(=O)c2[nH]nc3c2CN(C(=O)c2cc4ccccc4[nH]2)CC3)C1 [Example 259, (3R)-1-[5-(1H-indole-2-carbonyl)-2H,4H,5H,6H,7H-pyrazolo[4,3-c]pyridine-3-carbonyl]pyrrolidin-3-amine]
HBV
  EC50: 1 to 25 µM
[1]
  CC50 at 6 days: > 10 µM

## CN(CCC(=O)O)C(=O)CCN(C)C(=O)c1[nH]nc2c1CN(C(=O)c1cc3ccccc3[nH]1)CC2 [Example 275, 3-(3-{1-[5-(1H-indole-2-carbonyl)-2H,4H,5H,6H,7H-pyrazolo[4,3-c]pyridin-3-yl]-N-methylformamido}-N-methylpropanamido)propanoic acid]
HBV
  EC50: 1 to 25 µM
[1]
  CC50 at 6 days: > 10 µM

## CO/N=C(/c1n[nH]c2c1CN(C(=O)c1cc3ccccc3[nH]1)CC2)C1CC1 [Example 288, (E)-{cyclopropyl[5-(1H-indole-2-carbonyl)-1H,4H,5H,6H,7H-pyrazolo[4,3-c]pyridin-3-yl]methylidene}(methoxy)amine]
HBV
  EC50: 1 to 25 µM
[1]
  CC50 at 6 days: > 10 µM

## CO/N=C(\c1n[nH]c2c1CN(C(=O)c1cc3ccccc3[nH]1)CC2)C1CC1 [Example 289, (Z)-{cyclopropyl[5-(1H-indole-2-carbonyl)-1H,4H,5H,6H,7H-pyrazolo[4,3-c]pyridin-3-yl]methylidene}(methoxy)amine]
HBV
  EC50: 1 to 25 µM
[1]
  CC50 at 6 days: > 10 µM
